Source: patent US20240376056A1, “PHENYL ACETAMIDE BASED IL-17A MODULATORS AND USES THEREOF” (DiCE Alpha, Inc., priority 2021, published 2024)

Biological target: T1, IL-17A/A (Homo sapiens, UniProt Q16552)
T1 construct: purchased Genscript Z03228
T1 sequence (Q16552 24-155): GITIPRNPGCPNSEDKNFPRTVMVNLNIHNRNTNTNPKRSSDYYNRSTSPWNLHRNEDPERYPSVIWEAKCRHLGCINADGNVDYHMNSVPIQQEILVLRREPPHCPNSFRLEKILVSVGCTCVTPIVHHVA
Assay: HEK-Blue IL-17A/A inhibition assay (SEAP reporter)
Assay type: cell-based
Conditions: HEK-Blue cells (HEK 293 expressing IL-17RA, IL-17RC, Act1); IL-17A/A stimulation; 20 hours; SEAP read at A630; 4-parameter fit
How it was run: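 IC50 from a 4-parameter fit of SEAP signal (Quanti-Blue, A630) after 20 h co-incubation of compound and IL-17A/A. Reporter line: HEK 293 expressing IL-17RA, IL-17RC and Act1 with NFκB-SEAP; compound top final 10, 1 or 0.3 uM, DMSO 0.1% final.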

Compound | IC50 [µM]
CCn1nccc1C(=O)N[C@H](C(=O)Nc1ccc([C@H](C)C(=O)N(CC2CC2)CC(F)(F)F)cc1F)C1CCCCCC1 [Compound 8, N-((S)-1-cycloheptyl-2-((4-((S)-1-((cyclopropylmethyl)(2,2,2-trifluoroethyl)amino)-1-oxopropan-2-yl)-2-fluorophenyl)amino)-2-oxoethyl)-1-ethyl-1H-pyrazole-5-carboxamide] | < 0.1
CCn1nccc1C(=O)N[C@H](C(=O)Nc1ccc([C@H](C)C(=O)N2CCC[C@@H]2C(F)(F)F)cc1F)C(C1CC1)C1CC1 [Compound 9, N-((S)-1,1-dicyclopropyl-3-((2-fluoro-4-((S)-1-oxo-1-((R)-2-(trifluoromethyl)pyrrolidin-1-yl)propan-2-yl)phenyl)amino)-3-oxopropan-2-yl)-1-ethyl-1H-pyrazole-5-carboxamide] | > 1
CCn1nccc1C(=O)N[C@H](C(=O)Nc1ccc([C@H](C)C(=O)N(CCO)CC(F)(F)F)cc1F)C(C1CC1)C1CC1 [Compound 10, N-((S)-1,1-dicyclopropyl-3-((2-fluoro-4-((S)-1-((2-hydroxyethyl)(2,2,2-trifluoroethyl)amino)-1-oxopropan-2-yl)phenyl)amino)-3-oxopropan-2-yl)-1-ethyl-1H-pyrazole-5-carboxamide] | 0.1 to 1
CCn1nccc1C(=O)N[C@H](C(=O)Nc1ccc([C@H](C)C(=O)N2CCC[C@H]2C(F)(F)F)cc1F)C(C1CC1)C1CC1 [Compound 11, N-((S)-1,1-dicyclopropyl-3-((2-fluoro-4-((S)-1-oxo-1-((S)-2-(trifluoromethyl)pyrrolidin-1-yl)propan-2-yl)phenyl)amino)-3-oxopropan-2-yl)-1-ethyl-1H-pyrazole-5-carboxamide] | < 0.1
CCn1nccc1C(=O)N[C@H](C(=O)Nc1ccc([C@H](C)C(=O)NC(CCO)C(F)(F)F)cc1F)C(C1CC1)C1CC1 (stereo partly drawn) [Compound 12, N-((2S)-1,1-dicyclopropyl-3-((2-fluoro-4-((2S)-1-oxo-1-((1,1,1-trifluoro-4-hydroxybutan-2-yl)amino)propan-2-yl)phenyl)amino)-3-oxopropan-2-yl)-1-ethyl-1H-pyrazole-5-carboxanude] | 0.1 to 1
CCn1nccc1C(=O)N[C@H](C(=O)Nc1ccc([C@H](C)C(=O)N2CC(F)(F)C2)cc1F)C(C1CC1)C1CC1 [Compound 15, N-((S)-1,1-dicyclopropyl-3-((4-((S)-1-(3,3-difluoroazetidin-1-yl)-1-oxopropan-2-yl)-2-fluorophenyl)amino)-3-oxopropan-2-yl)-1-ethyl-1H-pyrazole-5-carboxamide] | 0.1 to 1
CC(C)n1nccc1C(=O)N[C@H](C(=O)Nc1ccc([C@H](C)C(=O)NC2CC2)cc1F)C(C1CC1)C1CC1 [Compound 16, N-((S)-1,1-dicyclopropyl-3-((4-((S)-1-(cyclopropylamino)-1-oxopropan-2-yl)-2-fluorophenyl)amino)-3-oxopropan-2-yl)-1-isopropyl-1H-pyrazole-5-carboxamide] | > 1
CC(C)n1nccc1C(=O)N[C@H](C(=O)Nc1ccc([C@H](C)C(=O)NCC(F)F)cc1F)C(C1CC1)C1CC1 [Compound 17, N-((S)-1,1-dicyclopropyl-3-((4-((S)-1-((2,2-difluoroethyl)amino)-1-oxopropan-2-yl)-2-fluorophenyl)amino)-3-oxopropan-2-yl)-1-isopropyl-1H-pyrazole-5-carboxanide] | 0.1 to 1
CNCCN(CC(F)(F)F)C(=O)[C@@H](C)c1ccc(NC(=O)[C@@H](NC(=O)c2ccnn2C(C)C)C(C2CC2)C2CC2)c(F)c1 [Compound 22, N-((S)-1,1-dicyclopropyl-3-((2-fluoro-4-((S)-1-((2-(methylamino)ethyl)(2,2,2-trifluoroethyl)amino)-1-oxopropan-2-yl)phenyl)amino)-3-oxopropan-2-yl)-1-isopropyl-1H-pyrazole-5-carboxamide] | 0.1 to 1
[2H]C([2H])([2H])N(CC(F)(F)F)C(=O)[C@@H](C)c1ccc(NC(=O)[C@@H](NC(=O)c2ccnn2C(C)C)C(C2CC2)C2CC2)c(F)c1 [Compound 23, N-((S)-1,1-dicyclopropyl-3-((2-fluoro-4-((S)-1-((methyl-d3)(2,2,2-trifluoroethyl)amino)-1-oxopropan-2-yl)phenyl)amino)-3-oxopropan-2-yl)-1-isopropyl-1H-pyrazole-5-carboxamide] | 0.1 to 1
CC(C)n1nccc1C(=O)N[C@H](C(=O)Nc1ccc([C@H](C)C(=O)N2CCN(CC(F)(F)F)CC2)cc1F)C(C1CC1)C1CC1 [Compound 24, N-((S)-1.1-dicyclopropyl-3-((2-fluoro-4-((S)-1-oxo-1-(4-(2,2,2-trifluoroethyl)piperazin-1-yl)propan-2-yl)phenyl)amino)-3-oxopropan-2-yl)-1-isopropyl-1H-pyrazole-5-carboxamide] | 0.1 to 1
CC(C)n1nccc1C(=O)N[C@H](C(=O)Nc1ccc([C@H](C)C(=O)NC2CC2C(F)F)cc1F)C(C1CC1)C1CC1 (stereo partly drawn) [Compound 25, N-((2S)-1.1-dicyclopropyl-3-((4-((2S)-1-((2-(difluoromethyl)cyclopropyl)amino)-1-oxopropan-2-yl)-2-fluorophenyl)amino)-3-oxopropan-2-yl)-1-isopropyl-1H-pyrazole-5-carboxamide] | 0.1 to 1
CC(C)n1nccc1C(=O)N[C@H](C(=O)Nc1ccc([C@H](C)C(=O)NC(C2CC2)C(F)(F)F)cc1F)C(C1CC1)C1CC1 (stereo partly drawn) [Compound 26, N-((2S)-1,1-dicyclopropyl-3-((4-((2S)-1-((1-cyclopropyl-2,2,2-trifluoroethyl)amino)-1-oxopropan-2-yl)-2-fluorophenyl)amino)-3-oxopropan-2-yl)-1-isopropyl-1H-pyrazole-5-carboxamide] | 0.1 to 1
CC(C)n1nccc1C(=O)N[C@H](C(=O)Nc1ccc([C@H](C)C(=O)NC(Cc2ccccn2)C(F)(F)F)cc1F)C(C1CC1)C1CC1 (stereo partly drawn) [Compound 27, N-((2S)-1,1-dicyclopropyl-3-((2-fluoro-4-((2S)-1-oxo-1-((1,1,1-trifluoro-3-(pyridin-2-yl)propan-2-yl)amino)propan-2-yl)phenyl)amino)-3-oxopropan-2-yl)-1-isopropyl-1H-pyrazole-5-carboxamide] | > 1
CC(C)n1nccc1C(=O)N[C@H](C(=O)Nc1ccc([C@H](C)C(=O)N2CCC(F)(F)C2)cc1F)C(C1CC1)C1CC1 [Compound 30] | 0.1 to 1
CC(C)n1nccc1C(=O)N[C@H](C(=O)Nc1ccc([C@H](C)C(=O)N2C[C@@H](O)[C@@H](F)C2)cc1F)C(C1CC1)C1CC1 [Compound 31, N-((S)-1.1-dicyclopropyl-3-((2-fluoro-4-((S)-1-((3S,4R)-3-fluoro-4-hydroxypyrrolidin-1-yl)-1-oxopropan-2-yl)phenyl)amino)-3-oxopropan-2-yl)-1-isopropyl-1H-pyrazole-5-carboxamide] | > 1
CC(C)n1nccc1C(=O)N[C@H](C(=O)Nc1ccc([C@H](C)C(=O)NCC(N(C)C)C(F)(F)F)cc1F)C(C1CC1)C1CC1 (stereo partly drawn) [Compound 32, N-((2S)-1.1-dicyclopropyl-3-((4-((2S)-1-((2-(dimethylamino)-3,3,3-trifluoropropyl)amino)-1-oxopropan-2-yl)-2-fluorophenyl)amino)-3-oxopropan-2-yl)-1-isopropyl-1H-pyrazole-5-carboxamide] | > 1
